From patent US20100160391A1, “Substituted Aminopyridines as Fluorescent Reporters for Amide Hydrolases” (priority 2006, published 2010)

Assays:
[1] = test system: amidases, human liver microsomes; assay: Specific activity, human liver microsomes; assay type: biochemical; settings: pH 8.0, 37° C.; NM = not measurable at the same protein concentration as other substrates
Description: (§1) Comparison of the lowest detection limits of protein concentration of FAAH toward colorimetric and fluorescent substrates. In general, all assays were performed in 96-well styrene flat-bottom microtiter plates with a Spectra Max M2 spectrophotometer at 37° C. for […]. The total volume of each well was 201 μl consisting of 0.1 M sodium phosphate buffer (pH 8.0) (190 μl) containing 1% glycerol and 0.1% Triton-X 100, stock or diluted protein solution (10 μl), and the substrate solution (1 μl) in ethanol (final concentration 200 μM for 10, 11, 13 or 14) or in DMSO (final concentration 25 μM for 12, 15, or 16; 50 μM for 17). The lowest detection limits of microsomal fatty acid amide hydrolase (FAAH) by substrates were determined by the fact that the signal at 10 min after kinetic measurements are equal to or over three times the noise or basal line at 0 min. Colorimetric substrate (16) assays were performed in clear 96-well microtititer plates using an absorbance wavelength at 382 nm. The fluorescent substrates containing 5-amino-2-methoxypyridine (e.g., 10, 13) were measured at an excitation wavelength (302 nm), emission wavelength (396 nm), and auto cutoff wavelength (325 nm). Similarly, the fluorescent substrates containing 5-amino-2-methoxy-6-methylpyridine (e.g., 11, 14, and 17) were measured at an excitation wavelength (304 nm), emission wavelength (392 nm), and an auto cutoff wavelength of 325 nm. In addition, an excitation wavelength (366 nm), emission wavelength (496 nm), and auto cutoff wavelength (495 nm) were used for the substrates (e.g., 12 and 15) containing 7-amino-4-trifluoromethyl coumarin.
Specific activity determination. The assays for specific activities were performed as described above for the sensitivity assay. The specific activity presented is based on the following: 1) the signal after a 10 min enzymatic reaction was at least 3 fold the baseline signal at 0 min, and 2) the amount of hydrolyzed substrate during a 10 min period was less than 10% of the total amount of the substrate added. To correct for protein-induced fluorescence quenching, a standard curve of 5-amino-2-methoxypyridine (6) or 5-amino-2-methoxy-6-methylpyridine (8) was constructed in the presence of the same protein concentration used for the assay of that enzyme.

[2] = target: T1, human FAAH, microsomes from FAAH cells (Homo sapiens, UniProt O00519); assay: Specific activity, microsomes from FAAH cells; assay type: biochemical
T1 construct: made in house; host or cells: Trichoplusia ni High Five cells infected with recombinant baculovirus Ac-hFAAH; microsomal fraction
T1 sequence (O00519 1-579): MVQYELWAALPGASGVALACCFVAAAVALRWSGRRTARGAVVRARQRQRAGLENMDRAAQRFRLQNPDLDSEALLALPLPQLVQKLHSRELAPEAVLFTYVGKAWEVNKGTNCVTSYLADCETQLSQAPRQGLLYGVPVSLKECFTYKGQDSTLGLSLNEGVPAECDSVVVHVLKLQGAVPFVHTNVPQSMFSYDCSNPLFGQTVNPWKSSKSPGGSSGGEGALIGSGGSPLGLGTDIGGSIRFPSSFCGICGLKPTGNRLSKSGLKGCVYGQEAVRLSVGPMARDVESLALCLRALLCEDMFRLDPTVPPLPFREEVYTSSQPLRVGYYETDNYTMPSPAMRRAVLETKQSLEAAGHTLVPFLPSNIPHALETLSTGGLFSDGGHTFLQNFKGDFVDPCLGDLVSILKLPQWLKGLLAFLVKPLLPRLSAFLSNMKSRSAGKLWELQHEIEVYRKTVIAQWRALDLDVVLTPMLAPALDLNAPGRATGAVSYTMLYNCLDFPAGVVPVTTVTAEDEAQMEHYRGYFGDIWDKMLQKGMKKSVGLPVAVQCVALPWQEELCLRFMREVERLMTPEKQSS
Description: Preparation of recombinant human FAAH. Transgenic expression of the human FAAH in a baculovirus system was performed by following the method described in Nishi et al., Arch. Biochem. Biophys., 445:115-123 (2006). The cDNA encoding human FAAH (GenBank Accession No. NM_001441) was amplified by PCR using a human liver cDNA library (Invitrogen; Carlsbad, Calif.) as a template. The primer pair was 5′-[…]-3′ and 5′-[…]-3′. BglII and EcoRI endonuclease sites (underlined) were incorporated just upstream of the start codon and downstream of the stop codon of the coding sequence of FAAH, respectively. The PCR products were cloned into a pCR2.1 vector (Invitrogen) and the nucleotide sequence was verified by DNA sequencing. The cDNA fragments were then excised and directionally ligated to the BglII and EcoRI sites of the baculovirus transfer vector pAcUW21 (Lopez-Ferber et al., Baculovirus transfer vectors, in “Baculovirus Expression Protocols,” Richardson (Ed.), pp 25-63, Humana Press, Totowa, N.J., 1995). Recombinant baculoviruses harboring the human FAAH gene, Ac-hFAAH, were generated by co-transfection of Spodoptera frugiperda-derived Sf21 cells with the recombinant transfer vector plasmid and Bsu36I-cleaved BacPAK6 viral DNA (Clontech Laboratories; Mountain View, Calif.) as described in O'Reilly et al., Baculovirus Expression Vectors: A Laboratory Manual, Oxford University Press, New York, 1992. Trichoplusia ni-derived High Five cells (1×10^6 cells/ml) were inoculated with a high titer of Ac-hFAAH. At 72 hours post-infection, the infected cells were harvested by centrifugation at 2,000×g for 20 min at 4° C. and suspended in 50 mM Tris-HCl (pH 8.0) containing 150 mM NaCl, 1 mM EDTA, 1 μM pepstatin, 100 μM leupeptin, and 0.1 mg/ml aprotinin. The cell suspension was then homogenized using a Polytron homogenizer and centrifuged at 10,000×g for 20 min at 4° C. The microsomal fraction was collected by ultracentrifugation of the supernatant at 100,000×g for 60 min at 4° C. The pellet was resuspended in 20 mM Tris-HCl (pH 8.0) containing 10% (w/v) glycerol and 1% (w/v) Triton-X 100 and stored at −80° C. until use.
as §1
Specific activity determination. The assays for specific activities were performed as described above for the sensitivity assay. […]

CCCCCCCC(=O)Nc1ccc(OC)nc1 [Compound 13, N-(6-methoxypyridin-3-yl) octanamide]
Specific activity, Human liver microsomes [1]: 0.46 ± 0.06 nmol/min/mg protein
enhancement of activity, microsomes from FAAH-expressing cells compared with High Five cells [2]: 254 times
preference of FAAH for substrate (13) over (14), specific activity ([2]; Table 4): 10 times
Specific activity, Microsomes from FAAH cells ([2]; pH 8.0, 37° C., NM = not measurable at the same protein concentration as other substrates): 202.6 ± 3.3 nmol/min/mg protein
